Earlier results as cited in US20030124524A1, “Screening assays for identifying modulators of the inflammatory or immune response” (priority 2000, published 2003).
Read-outs that look alike come from different tables or passages of the source.

rhIL-1ra: recombinant human IL-1 receptor antagonist protein, useful for treatment of rheumatoid arthritis in a genotype-dependent manner
response to treatment of rheumatoid arthritis (patients carrying at least one IL-1A (+4845) allele 2 (and alleles in linkage disequilibrium)): substantial and significant response | response to treatment of rheumatoid arthritis (patients homozygous for IL-1A (+4845) allele 1): response no better than placebo
